Results reported in US20050112573A1, “Method of detecting toxic substance” (priority 2001, published 2005).

System: yeast genes (level of expressed mRNA)
Assay: DNA chip analysis of expressed mRNA of yeast genes after 2 h culture with a toxic chemical substance
Format: cell-based, Saccharomyces cerevisiae S288C
Details: for The level of expressed mRNA in the presence of chemical substance/ (ratio to absence of chemical substance): stress protein genes, DNA chip
Description: Yeast (Saccharomyces cerevtisiae S288C (α SUC2mal mel gap2 CUP1)) were cultured at 25° C. on YPD medium (yeast extract 1%, polypepton 2%, glucose 2%). One of toxic chemical substances was added to the cell at logarithmic growth phase, and the cell was further cultured for two hours. Cell was cultured without any chemical substance in the same condition, and was used as control. Concentrations of the chemical substances were defined to inhibit the growth of the yeast but not lead to death.
After the completion of cultivation, the culture was centrifuged to collect the cells. To the cells, sodium acetate buffer (50 mM sodium acetate, 10 mM EDTA, 1% SDS) was added, and the mixture was shaken at 65° C. for five minutes, followed by returning to room temperature, and obtaining the supernatant, which procedure was repeated two times. To the supernatant, ½ amount of a solution of phenol/chloroform was added, and the mixture was centrifuged to give a supernatant, which was added with an equal amount of chloroform, and the mixture was centrifuged to give a supernatant. To the supernatant, an equal amount of isopropanol containing 0.3 M sodium acetate was added, and the mixture was allowed to stand at room temperature for 30 minutes, after which the mixture was centrifuged to give a sediment of the whole RNAs. Seventy % ethanol was added to the sediment, and the mixture was again centrifuged to give a sediment, which was then dried and dissolved in water. mRNA was isolated from the whole RNAs as followings. In view of the fact that a poly A chain is attached to the 3′ terminus of mRNA, a polynucleotide having a poly T structure which was immobilized on the surface of latex beads was used to trap the mRNA, and then the mRNA was washed and eluted with spine column (Oligotex-dT30<Super>mRNA Purification Kit, Takara). Reverse transcription of the mRNA was conducted with a reverse transcriptase (Super Script II Reverse Transcriptase; catalogue No. 18064-014, GibcoBRL) using fluorescence-labeled nucleotides to give cDNAs that were introduced with Cy3-dUTP or Cy5-dUTP during the reverse transcription.
The labeled cDNAs were dissolved in TE buffer (10 mM Tris-HCl/1 mM EDTA, pH8.0), and the solution was dropped on the DNA chip containing the whole genes of yeast (DNA Chip Research Inc. Japan) so that the cDNAs were hybridized on the DNA chip at 65° C. for over 12 hours. The fluoresces intensity of the DNA chip was read with a scanner, and the ratio relative to the fluorescence intensity resulting from the absence of chemical substance was estimated as the following, which is shown in Tables 1 to 9: [formula]
In the Tables, “Intensity” indicated in the rightmost column is a value of the level of expressed mRNA of each gene in control cells as divided by the average level of the expressions of the whole genes.

In the case of `CCCCCCCCCCCCOS(=O)(=O)[O-].[Na+]` [(18), sodium lauryl sulfate], the “The level of expressed mRNA in the presence of chemical substance/The level of expressed mRNA in the absence of chemical substance” value (yeast gene YIL140W) is reported as 1.0, the “The level of expressed mRNA in the presence of chemical substance/ (in its absence), gene YJL070C” value (yeast gene YJL070C, ratio of DNA chip fluorescence intensity to that without chemical substance) is reported as 1.2 and the “The level of expressed mRNA in the presence of chemical substance/The level of expressed mRNA in the absence of chemical substance” value (yeast gene YJL073W) is reported as 1.0. For the same compound, the “The level of expressed mRNA in the presence of chemical substance/The level of expressed mRNA in the absence of chemical substance” value (yeast gene YJL089W) was 1.1, the “The level of expressed mRNA in the presence of chemical substance/ (ratio to absence), gene YJL096W” value (yeast gene YJL096W, mitochondria-located protein genes, 2 h culture with chemical) was 1.2 and the “The level of expressed mRNA in the presence of chemical substance/The level of expressed mRNA in the absence of chemical substance” value (yeast gene YJL116C) was 0.7. For the same compound, the “The level of expressed mRNA in the presence of chemical substance/ (ratio to absence of chemical substance)” value (yeast gene YJL158C) was 1.4, the “The level of expressed mRNA in the presence of chemical substance/ (in its absence), gene YJL167W” value (yeast gene YJL167W, ratio of DNA chip fluorescence intensity to that without chemical substance) was 2.1 and the “The level of expressed mRNA in the presence of chemical substance/ (ratio to absence), gene YJL180C” value (yeast gene YJL180C, mitochondria-located protein genes, 2 h culture with chemical) was 1.4. For the same compound, the “The level of expressed mRNA in the presence of chemical substance/ (in its absence), gene YJL216C” value (yeast gene YJL216C, ratio of DNA chip fluorescence intensity to that without chemical substance) was 2.0, the “The level of expressed mRNA in the presence of chemical substance/The level of expressed mRNA in the absence of chemical substance” value (yeast gene YJR004C) was 0.4 and the “The level of expressed mRNA in the presence of chemical substance/The level of expressed mRNA in the absence of chemical substance” value (yeast gene YJR086W) was 1.6. The “The level of expressed mRNA in the presence of chemical substance/ (ratio to absence of chemical substance)” value (yeast gene YJR090C) was 1.0, the “The level of expressed mRNA in the presence of chemical substance/The level of expressed mRNA in the absence of chemical substance” value (yeast gene YKL008C) was 1.9 and the “The level of expressed mRNA in the presence of chemical substance/The level of expressed mRNA in the absence of chemical substance” value (yeast gene YKL013C) was 1.7. The “The level of expressed mRNA in the presence of chemical substance/The level of expressed mRNA in the absence of chemical substance” value (yeast gene YKL039W) was 1.3, the “The level of expressed mRNA in the presence of chemical substance/The level of expressed mRNA in the absence of chemical substance” value (yeast gene YKL041W) was 1.3 and the “The level of expressed mRNA in the presence of chemical substance/The level of expressed mRNA in the absence of chemical substance” value (yeast gene YKL096W) was 0.7. The “The level of expressed mRNA in the presence of chemical substance/ (ratio to absence of chemical substance)” value (yeast gene YKL164C) was 0.8, the “The level of expressed mRNA in the presence of chemical substance/The level of expressed mRNA in the absence of chemical substance” value (yeast gene YKL165C) was 1.0 and the “The level of expressed mRNA in the presence of chemical substance/The level of expressed mRNA in the absence of chemical substance” value (yeast gene YKL193C) was 2.3. For the same compound, the “The level of expressed mRNA in the presence of chemical substance/ (in its absence), gene YKR009C” value (yeast gene YKR009C, ratio of DNA chip fluorescence intensity to that without chemical substance) was 2.5, the “The level of expressed mRNA in the presence of chemical substance/ (in its absence), gene YKR034W” value (yeast gene YKR034W, ratio of DNA chip fluorescence intensity to that without chemical substance) was 1.0 and the “The level of expressed mRNA in the presence of chemical substance/ (ratio to absence of chemical substance)” value (yeast gene YKR053C) was 2.4. For the same compound, the “The level of expressed mRNA in the presence of chemical substance/ in its absence, gene YKR058W” value (yeast gene YKR058W, energy system protein genes, 2 h culture with the chemical, ratio to control without chemical) was 1.6, the “The level of expressed mRNA in the presence of chemical substance/ (in its absence), gene YLR006C” value (yeast gene YLR006C, ratio of DNA chip fluorescence intensity to that without chemical substance) was 1.0 and the “The level of expressed mRNA in the presence of chemical substance/ (ratio to absence of chemical substance)” value (yeast gene YLR006C) was 1.0. The “The level of expressed mRNA in the presence of chemical substance/The level of expressed mRNA in the absence of chemical substance” value (yeast gene YLR120C) was 2.9, the “The level of expressed mRNA in the presence of chemical substance/The level of expressed mRNA in the absence of chemical substance” value (yeast gene YLR136C) was 1.4 and the “The level of expressed mRNA in the presence of chemical substance/The level of expressed mRNA in the absence of chemical substance” value (yeast gene YLR178C) was 3.6. The “The level of expressed mRNA in the presence of chemical substance/The level of expressed mRNA in the absence of chemical substance” value (yeast gene YLR250W) was 2.2, the “The level of expressed mRNA in the presence of chemical substance/ in its absence, gene YLR295C” value (yeast gene YLR295C, energy system protein genes, 2 h culture with the chemical, ratio to control without chemical) was 1.5 and the “The level of expressed mRNA in the presence of chemical substance/ (ratio to absence), gene YLR295C” value (yeast gene YLR295C, mitochondria-located protein genes, 2 h culture with chemical) was 1.5. For the same compound, the “The level of expressed mRNA in the presence of chemical substance/The level of expressed mRNA in the absence of chemical substance” value (yeast gene YLR327C) was 5.3, the “The level of expressed mRNA in the presence of chemical substance/ (in its absence), gene YLR351C” value (yeast gene YLR351C, ratio of DNA chip fluorescence intensity to that without chemical substance) was 1.8 and the “The level of expressed mRNA in the presence of chemical substance/The level of expressed mRNA in the absence of chemical substance” value (yeast gene YLR356W) was 1.0. The “The level of expressed mRNA in the presence of chemical substance/The level of expressed mRNA in the absence of chemical substance” value (yeast gene YLR362W) was 1.3, the “The level of expressed mRNA in the presence of chemical substance/ (in its absence), gene YLR375W” value (yeast gene YLR375W, ratio of DNA chip fluorescence intensity to that without chemical substance) was 1.0 and the “The level of expressed mRNA in the presence of chemical substance/The level of expressed mRNA in the absence of chemical substance” value (yeast gene YLR391W) was 0.9. For the same compound, the “The level of expressed mRNA in the presence of chemical substance/The level of expressed mRNA in the absence of chemical substance” value (yeast gene YLR429W) was 0.9, the “The level of expressed mRNA in the presence of chemical substance/ in its absence, gene YML129C” value (yeast gene YML129C, energy system protein genes, 2 h culture with the chemical, ratio to control without chemical) was 1.3 and the “The level of expressed mRNA in the presence of chemical substance/ (ratio to absence), gene YML129C” value (yeast gene YML129C, mitochondria-located protein genes, 2 h culture with chemical) was 1.3. The “The level of expressed mRNA in the presence of chemical substance/The level of expressed mRNA in the absence of chemical substance” value (yeast gene YMR004W) was 1.3, the “The level of expressed mRNA in the presence of chemical substance/ (ratio to absence), gene YMR023C” value (yeast gene YMR023C, mitochondria-located protein genes, 2 h culture with chemical) was 1.4 and the “The level of expressed mRNA in the presence of chemical substance/The level of expressed mRNA in the absence of chemical substance” value (yeast gene YMR094W) was 1.0. For the same compound, the “The level of expressed mRNA in the presence of chemical substance/The level of expressed mRNA in the absence of chemical substance” value (yeast gene YMR104C) was 1.9, the “The level of expressed mRNA in the presence of chemical substance/ (ratio to absence of chemical substance)” value (yeast gene YMR186W) was 1.1 and the “The level of expressed mRNA in the presence of chemical substance/The level of expressed mRNA in the absence of chemical substance” value (yeast gene YMR219W) was 0.9. For the same compound, the “The level of expressed mRNA in the presence of chemical substance/The level of expressed mRNA in the absence of chemical substance” value (yeast gene YMR226C) was 2.0, the “The level of expressed mRNA in the presence of chemical substance/ in its absence, gene YMR267W” value (yeast gene YMR267W, energy system protein genes, 2 h culture with the chemical, ratio to control without chemical) was 1.3 and the “The level of expressed mRNA in the presence of chemical substance/ (ratio to absence), gene YMR267W” value (yeast gene YMR267W, mitochondria-located protein genes, 2 h culture with chemical) was 1.3. The “The level of expressed mRNA in the presence of chemical substance/ in its absence, gene YMR267W” value (yeast gene YMR267W, ratio of DNA chip fluorescence intensity to that without chemical substance) was 1.3, the “The level of expressed mRNA in the presence of chemical substance/The level of expressed mRNA in the absence of chemical substance” value (yeast gene YMR275C) was 0.7 and the “The level of expressed mRNA in the presence of chemical substance/The level of expressed mRNA in the absence of chemical substance” value (yeast gene YMR276W) was 0.7. The “The level of expressed mRNA in the presence of chemical substance/ (in its absence), gene YMR278W” value (yeast gene YMR278W, ratio of DNA chip fluorescence intensity to that without chemical substance) was 1.5, the “The level of expressed mRNA in the presence of chemical substance/ (in its absence), gene YMR293C” value (yeast gene YMR293C, ratio of DNA chip fluorescence intensity to that without chemical substance) was 1.0 and the “The level of expressed mRNA in the presence of chemical substance/The level of expressed mRNA in the absence of chemical substance” value (yeast gene YMR314W) was 1.6.
